Experimental data: US20260042759A1, “INHIBITOR CONTAINING BICYCLIC DERIVATIVE, PREPARATION METHOD THEREFOR AND USE THEREOF” (SHANGHAI HANSOH BIOMEDICAL CO., LTD., priority 2019, published 2026)

Experiments:
KDR kinase = molecular target: T1, KDR kinase (Homo sapiens, UniProt P35968); assay: HTRF kinase assay, KDR; type: biochemical; conditions: for IC50: HTRF, ATP at Km; for Ratio (KDR/RET): KDR IC50 / RET IC50
T1 construct: purchased Carna 08-191
Description: • KDR kinase was purchased from Carna Company, and the article number was 08-191; • HTRF KinEASE-TK kit was purchased from Cisbio Company, and the article number was 62TK0PEC; • ATP was purchased from Thermofisher Company, and the article number was PV3227; • 384-well plate was purchased from PerkinElmer Company, and the article number was 6007290.
In this experiment, the homogeneous time-resolved fluorescence (HTRF) method was used for the detection of compounds on KDR kinase activity.

Ba/F3 KIF5B-RET cells = molecular target: T2, Ba/F3 KIF5B-RET cells (Homo sapiens, UniProt P07949); assay: Ba/F3 KIF5B-RET cell proliferation (CellTiter-Glo); type: cell-based; conditions: 72 to 144 hours, read-out: Ba/F3 KIF5B-RET IC50
T2 construct: fused on or other part: P33176 (Kinesin-1 heavy chain)
T2 sequence (P07949 whole entry, change not shown, the tested form may be a part): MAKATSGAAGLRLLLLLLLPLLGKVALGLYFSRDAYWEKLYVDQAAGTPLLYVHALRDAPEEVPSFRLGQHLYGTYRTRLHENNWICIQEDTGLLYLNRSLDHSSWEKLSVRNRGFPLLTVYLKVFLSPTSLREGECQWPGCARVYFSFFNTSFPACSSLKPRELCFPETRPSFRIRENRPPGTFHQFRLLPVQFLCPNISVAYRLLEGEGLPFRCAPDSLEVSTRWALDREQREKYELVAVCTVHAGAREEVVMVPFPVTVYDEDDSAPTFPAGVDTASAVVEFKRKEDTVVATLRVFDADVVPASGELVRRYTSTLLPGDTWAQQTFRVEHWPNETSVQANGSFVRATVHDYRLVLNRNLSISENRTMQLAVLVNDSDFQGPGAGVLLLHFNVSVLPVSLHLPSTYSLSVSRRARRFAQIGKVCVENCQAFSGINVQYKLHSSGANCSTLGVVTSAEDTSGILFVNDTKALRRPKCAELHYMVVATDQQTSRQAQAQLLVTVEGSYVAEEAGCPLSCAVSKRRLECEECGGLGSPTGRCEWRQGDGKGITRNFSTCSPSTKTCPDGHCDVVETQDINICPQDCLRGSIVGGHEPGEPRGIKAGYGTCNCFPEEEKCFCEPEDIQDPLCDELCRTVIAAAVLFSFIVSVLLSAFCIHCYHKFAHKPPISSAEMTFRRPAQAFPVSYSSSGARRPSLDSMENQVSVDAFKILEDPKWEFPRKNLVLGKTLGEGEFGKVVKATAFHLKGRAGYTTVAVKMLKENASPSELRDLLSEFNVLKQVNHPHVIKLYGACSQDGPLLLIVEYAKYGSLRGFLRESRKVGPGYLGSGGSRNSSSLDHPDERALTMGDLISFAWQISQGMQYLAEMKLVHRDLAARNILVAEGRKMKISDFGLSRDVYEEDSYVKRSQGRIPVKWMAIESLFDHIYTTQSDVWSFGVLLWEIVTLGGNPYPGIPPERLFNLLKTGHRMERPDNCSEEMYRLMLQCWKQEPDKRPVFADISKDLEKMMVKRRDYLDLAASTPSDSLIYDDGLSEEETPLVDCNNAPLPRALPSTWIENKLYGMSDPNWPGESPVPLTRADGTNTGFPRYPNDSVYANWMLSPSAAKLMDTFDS
Procedure: When Ba/F3 KIF5B-RET cells were cultured to the appropriate cell density, cells were collected, and the cells were adjusted to the appropriate cell concentration using complete medium, and the cell suspension was spread in a 96-well plate, 90 μL per well, and placed in a 37° C., 5% CO2 incubator for overnight; compound solutions of different concentrations were prepared using DMSO and culture medium; a solvent control was set, and the compound solution was added to a 96-well plate with 10 μL per well at 37° C. in a 5% CO2 incubator for 72 to 144 hours; CellTiter-Glo solution was added thereto and mixed well by shaking, incubated for 10 min in the dark, and read by BioTek Synergy H1 microplate reader.
The luminescence signal values were used to calculate the inhibition rate, the concentrations and the inhibition rates were fitted to a nonlinear regression curve using Graphpad Prism software.

[1] = test system: TT cells (MTC, RET C634W); assay: TT cell proliferation (CellTiter-Glo); type: cell-based, human; conditions: Homo sapiens, TT, 72 h
Procedure: When TT cells were cultured to the appropriate fusion level, TT cells were collected, and the cells were adjusted to the appropriate cell concentration using complete medium, and the cell suspension was spread in a 96-well plate, 90 µL per well, and placed in a 37° C., 5% CO2 incubator overnight; and compound solutions of different concentrations were prepared using DMSO and culture medium; and a solvent control was set, the compound solution was added to a 96-well plate, 10 µL per well, at 37° C. in a 5% CO2 incubator for 72 hours; CellTiter-Glo solution was added thereto and the mixture was mixed well by shaking, incubated for 10 min in the dark, and read by BioTek Synergy H1 microplate reader.
The luminescence signal values were used to calculate the inhibition rate, the concentration and the inhibition rate were fitted to a nonlinear regression curve using Graphpad Prism software.

RET = molecular target: T3, RET (Homo sapiens, UniProt P07949); assay: HTRF kinase assay, RET wild-type; type: biochemical; conditions: ATP at Km
T3 construct: purchased Carna 08-159
T3 sequence (P07949 29-1114): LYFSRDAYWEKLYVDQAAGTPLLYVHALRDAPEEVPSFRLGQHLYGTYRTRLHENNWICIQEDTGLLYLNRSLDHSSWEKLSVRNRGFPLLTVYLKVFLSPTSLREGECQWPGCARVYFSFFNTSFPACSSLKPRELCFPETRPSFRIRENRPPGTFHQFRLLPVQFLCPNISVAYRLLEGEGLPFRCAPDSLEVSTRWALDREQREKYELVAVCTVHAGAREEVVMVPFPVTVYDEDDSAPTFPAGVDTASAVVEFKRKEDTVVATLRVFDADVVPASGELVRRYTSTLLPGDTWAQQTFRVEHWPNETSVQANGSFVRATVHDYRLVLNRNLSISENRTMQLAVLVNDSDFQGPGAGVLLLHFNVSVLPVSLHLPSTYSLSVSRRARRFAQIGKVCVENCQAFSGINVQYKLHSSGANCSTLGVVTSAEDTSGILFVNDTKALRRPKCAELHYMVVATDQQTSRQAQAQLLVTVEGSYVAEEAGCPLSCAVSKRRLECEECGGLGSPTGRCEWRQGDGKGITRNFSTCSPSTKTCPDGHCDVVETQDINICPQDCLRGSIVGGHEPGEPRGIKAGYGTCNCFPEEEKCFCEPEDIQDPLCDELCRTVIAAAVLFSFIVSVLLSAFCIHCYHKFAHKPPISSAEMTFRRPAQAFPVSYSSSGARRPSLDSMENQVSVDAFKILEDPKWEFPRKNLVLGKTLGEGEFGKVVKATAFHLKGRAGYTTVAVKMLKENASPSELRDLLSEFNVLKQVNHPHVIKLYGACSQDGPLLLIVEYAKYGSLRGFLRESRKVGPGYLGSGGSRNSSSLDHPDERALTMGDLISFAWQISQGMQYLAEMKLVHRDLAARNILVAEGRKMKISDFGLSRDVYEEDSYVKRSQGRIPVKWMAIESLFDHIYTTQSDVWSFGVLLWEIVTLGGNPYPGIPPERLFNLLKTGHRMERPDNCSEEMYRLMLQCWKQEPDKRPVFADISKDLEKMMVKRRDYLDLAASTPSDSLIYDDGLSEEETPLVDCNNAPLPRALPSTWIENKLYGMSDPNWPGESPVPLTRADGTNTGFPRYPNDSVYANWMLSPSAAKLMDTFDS
Description: (§1) • RET enzyme was purchased from Carna Company, and the article number was 08-159; • RET M918T enzyme was purchased from Carna Company, and the article number was 08-508; • KIF5B-RET was purchased from SignalChem Company, the article number was R02-19FG-05; • CCDC6-RET was purchased from SignalChem Company, the article number was R02-19BG-05; • RET V804M enzyme was purchased from Thermofisher Company, and the article number was PV6223; • RET V804L enzyme was purchased from Thermofisher Company, and the article number was PV4397; • HTRF KinEASE-TK kit was purchased from Cisbio Company, and the article number was 62TK0PEC; • ATP was purchased from Thermofisher Company, and the article number was PV3227; • 384-well plate was purchased from PerkinElmer Company, and the article number was 6007290.
(§2) In this experiment, the homogeneous time-resolved fluorescence (HTRF) method was used for the detection of compounds on RET kinase activity.

RET M918T = molecular target: T4, RET M918T (Homo sapiens, UniProt P07949, M918T); assay: HTRF kinase assay, RET M918T; type: biochemical; conditions: ATP at Km
T4 construct: purchased Carna 08-508
T4 sequence (P07949 29-1114 M918T): as the sequence (P07949 29-1114) above, with M890T counted along it
Description: as §1, §2

[2] = Balb/C mouse pharmacokinetics, oral; type: in vivo; conditions: male, mouse, po, Balb/C mice, p.o., 5 mg/kg, plasma
Procedure: The pharmacokinetic behavior of the following compound embodiments, administered orally at a dose of 5 mg/kg in plasma in mice, was studied using Balb/C mice as test animals.
Balb/C Mouse 6/embodiment, male, Shanghai Jiesijie Laboratory Animal Co., Ltd, Animal Production License No. (SCXK (Shanghai) 2013-0006 N0.311620400001794).
Balb/C mice, males; p.o. after overnight fasting, respectively, at a dose of 5 mg/kg, administered in a volume of 10 mL/kg.
0.5% CMC-Na(1% Tween80) was dissolved by ultrasound, and prepared into clear solution or uniform suspension.
Before and after administration, 0.1 mL of blood was collected from mice at 0, 0.5, 1, 2, 4, 6, 8 and 24 hours by orbital collection, placed in EDTA-K2 tubes, centrifuged at 6000 rpm at 4° C. for 6 min to separate plasma, and stored at −80° C.
40 μL of plasma sample was precipitated by adding 160 μL of acetonitrile, mixed and centrifuged at 3500×g for 5-20 min.
100 μL of the supernatant solution after treatment was taken to analyze the concentration of the test compound by LC/MS/MS.
The main pharmacokinetic parameters were calculated using WinNonlin 6.1 and the results of the mouse pharmacokinetic experiments were shown in Table 8 below.

T1 sequence (P35968 20-1356): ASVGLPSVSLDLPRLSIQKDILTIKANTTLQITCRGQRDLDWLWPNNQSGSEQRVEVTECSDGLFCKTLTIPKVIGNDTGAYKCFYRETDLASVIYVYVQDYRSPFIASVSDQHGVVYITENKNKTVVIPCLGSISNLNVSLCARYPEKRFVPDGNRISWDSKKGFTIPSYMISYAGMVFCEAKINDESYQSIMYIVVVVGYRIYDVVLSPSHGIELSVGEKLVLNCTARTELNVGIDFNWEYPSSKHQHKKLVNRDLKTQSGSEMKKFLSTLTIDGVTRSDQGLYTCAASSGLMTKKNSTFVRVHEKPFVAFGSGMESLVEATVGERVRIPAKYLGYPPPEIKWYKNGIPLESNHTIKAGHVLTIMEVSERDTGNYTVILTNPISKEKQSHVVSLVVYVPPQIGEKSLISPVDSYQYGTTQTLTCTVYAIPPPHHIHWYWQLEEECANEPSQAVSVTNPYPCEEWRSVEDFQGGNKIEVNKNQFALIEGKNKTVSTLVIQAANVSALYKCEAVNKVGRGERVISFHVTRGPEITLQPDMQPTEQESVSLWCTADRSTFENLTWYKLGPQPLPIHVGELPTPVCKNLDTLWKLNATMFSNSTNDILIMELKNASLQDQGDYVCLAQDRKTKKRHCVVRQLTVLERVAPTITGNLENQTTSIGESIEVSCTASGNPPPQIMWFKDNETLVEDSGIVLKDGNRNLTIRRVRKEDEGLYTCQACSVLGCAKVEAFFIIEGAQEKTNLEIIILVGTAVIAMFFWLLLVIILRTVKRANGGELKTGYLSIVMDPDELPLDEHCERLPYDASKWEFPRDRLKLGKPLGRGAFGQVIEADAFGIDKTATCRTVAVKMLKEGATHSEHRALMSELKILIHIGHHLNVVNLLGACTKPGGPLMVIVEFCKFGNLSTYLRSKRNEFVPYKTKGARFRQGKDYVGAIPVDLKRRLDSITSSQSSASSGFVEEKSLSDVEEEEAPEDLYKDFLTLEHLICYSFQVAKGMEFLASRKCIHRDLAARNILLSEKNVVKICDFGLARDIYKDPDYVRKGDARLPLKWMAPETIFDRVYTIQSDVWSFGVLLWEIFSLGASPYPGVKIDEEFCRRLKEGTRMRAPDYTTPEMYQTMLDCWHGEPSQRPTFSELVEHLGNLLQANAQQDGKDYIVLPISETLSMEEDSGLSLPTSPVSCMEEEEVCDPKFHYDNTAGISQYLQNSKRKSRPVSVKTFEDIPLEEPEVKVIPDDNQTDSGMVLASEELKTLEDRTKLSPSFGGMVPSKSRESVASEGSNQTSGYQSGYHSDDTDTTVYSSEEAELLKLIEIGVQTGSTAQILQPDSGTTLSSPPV

| Structure (SMILES) | IC50 (KDR kinase) | Ratio (KDR/RET) (KDR kinase) | GI50 (Ba/F3 KIF5B-RET cells) | IC50 [1] | IC50 (RET) | IC50 (RET M918T) | MRT ([2]; read-out: Average residence time MRT) | Cmax ([2]; read-out: Blood concentration Cmax) | AUC(0-t) ([2]; read-out: Curve area AUC0-t) | AUC(0-inf) ([2]; read-out: Curve area AUC0-∞) | half-life ([2]; read-out: Half-life t1/2 (converted)) | Tmax ([2]; read-out: Peak time tmax) |
| --- | --- | --- | --- | --- | --- | --- | --- | --- | --- | --- | --- | --- |
| CC1(NC(=O)c2ncccc2Cl)CCN(c2ccc(-c3cc(C#CC4(O)COC4)cn4ncc(C#N)c34)cn2)CC1 [Embodiment 175, 3-Chloro-N-(1-(5-(3-cyano-6-((3-hydroxyoxetan-3-yl)ethynyl)pyrazolo[1,5-a]pyridin-4-yl)pyridin-2-yl)-4-methylpiperidin-4-yl)picolinamide] | 47 nM | 185 | 15.5 nM | 18.5 nM | 0.25 nM |  |  |  |  |  |  |  |
| COc1ncc(CN2C3CC2CN(c2ccc(-c4cc(OC[C@H]5C[C@@](C)(O)C5)cn5ncc(C#N)c45)cn2)C3)cc1F [Embodiment 161, 4-(6-(6-((5-Fluoro-6-methoxypyridin-3-yl)methyl)-3,6-diazabicyclo[3.1.1]heptan-3-yl)pyridin-3-yl)-6-((cis-3-hydroxy-3-methylcyclobutyl)methoxy)pyrazolo[1,5-a]pyridine-3-carbonitrile] | 7.4 nM | 20 | 8.59 nM | 13.9 nM | 0.37 nM |  |  |  |  |  |  |  |
| COc1ccc(CN2C3CC2CN(c2ccc(-c4cc(OCC5(C#N)CC5)cn5ncc(C#N)c45)cn2)C3)cn1 [Embodiment 106, 6-((1-Cyanocyclopropyl)methoxy)-4-(6-(6-((6-methoxypyridin-3-yl)methyl)-3,6-diazabicyclo[3.1.1]heptan-3-yl)pyridin-3-yl)pyrazolo[1,5-a]pyridine-3-carbonitrile] |  |  |  | 19 nM |  | 0.47 nM | 4.71 h | 3120 ng/mL | 18900 ng·h/mL | 18900 ng·h/mL | 2.66 h | 0.5 h |
